The target in series [1] is Gamma-secretase. In words: In vitro inhibition of gamma secretase. Format: protein-complex assay, Homo sapiens.
The nature of series [2]: Cmax value at 5 mg/kg po in rat. The series is classed as ADME, organism-based. Also noted: dose 5 mg/kg, route oral. The following applies: in vivo.
A short description of series [3]: Area under curve at 4 hr in rat. Also noted: time < 4 hr. The conditions noted are these: in vivo. The series is classed as ADME, organism-based.
A short description of series [4]: Cmax value at 1 mg/kg po in rat. Format: ADME, organism-based. The arrangement: dose 1 mg/kg, route oral. The conditions noted are these: in vivo.
Series [5] in a line: Bioavailability in rat. Format: ADME, organism-based. The conditions noted are these: in vivo.
The nature of series [6]: Cmax value at 5 mg/kg po was determined in rat. Format: ADME, organism-based. The conditions noted are these: in vivo. Also noted: dose 5 mg/kg, route oral.
Series [7] is described as follows: Half life period was determined. Format: ADME. The following applies: rat.

Some results are limits rather than exact numbers.

In turn, `C[C@@H](Cc1ccc(F)c(F)c1)C(=O)NC1N=C(c2ccc(C(N)=O)cc2)c2ccccc2N(C)C1=O` (stereo partly specified) displayed an IC50 in series [1] of 0.49 nM. On the same count and under the same terms, to `C[C@@H](Cc1ccc(F)c(F)c1)C(=O)N[C@H]1N=C(c2ccc3c(c2)CCCC3=O)c2ccccc2N(C)C1=O` belongs 2.2 nM.

On to `C[C@@H](Cc1ccc(F)c(F)c1)C(=O)N[C@H]1N=C(c2ccc3c(c2)CCN(C)C3=O)c2ccccc2N(C)C1=O`, for which the 50% inhibitory concentration (IC50) in series [1] was 1880 nM. Compared with the last compound, the IC50 is about 850-fold higher. Same read-out and setting: to `C[C@@H](Cc1ccc(F)c(F)c1)C(=O)N[C@H]1N=C(c2ccc3c(c2)OC(F)(F)O3)c2ccccc2N(C)C1=O` belongs 28 nM. In series [1], `C[C@@H](Cc1ccc(F)c(F)c1)C(=O)N[C@H]1N=C(c2ccc3c(=O)ccoc3c2)c2ccccc2N(C)C1=O` displayed an IC50 of 1.2 nM. This IC50 is about 23-fold lower than that of the compound before. On to `C[C@@H](Cc1ccc(F)c(F)c1)C(=O)N[C@H]1N=C(c2ccc3c(c2)OCO3)c2ccccc2N(C)C1=O`, for which the Cmax in series [2] was determined as 40 nM. For the same compound, in series [3], the AUC at 4 h worked out at 0.09 µM·h. The same compound returned an IC50 in series [1] of 13.2 nM. With `C[C@@H](Cc1ccc(F)c(F)c1)C(=O)N[C@H]1N=C(c2ccc3c(c2)CCNC3=O)c2ccccc2N(C)C1=O`, the Cmax in series [4] is 2 nM. In series [3], this compound registered an AUC at 4 h of less than 0.004 µM·h. It took 0.3 nM to reach half-maximal inhibition in series [1] (IC50). For `C[C@@H](Cc1ccc(F)c(F)c1)C(=O)N[C@H]1N=C(c2ccc3c(=O)[nH]ccc3c2)c2ccccc2N(C)C1=O`, in series [1], it took 0.2 nM to reach half-maximal inhibition (IC50). That is a sub-nanomolar value. In series [1], `C[C@@H](Cc1ccc(F)c(F)c1)C(=O)N[C@H]1N=C(c2ccc3c(c2)OCO3)c2ccccc2N(CC(=O)N(C)C)C1=O` gave an IC50 of 5.5 nM. In the case of `C[C@@H](Cc1ccc(F)c(F)c1)C(=O)N[C@H]1N=C(c2ccc3c(c2)OCO3)c2ccccc2N(CC(N)=O)C1=O`, the bioavailability in series [5] is 22%. Also, the Cmax in series [6] worked out at 900 nM. In series [3], this compound displayed an exposure (AUC) at 4 h of 2.9 µM·h. For the same compound, the half-life in series [7] was 1.4 h. This compound also yielded an IC50 in series [1] of 13.2 nM. Take `CC(=O)CCN1C(=O)[C@@H](NC(=O)[C@@H](C)Cc2ccc(F)c(F)c2)N=C(c2ccc3c(c2)OCO3)c2ccccc21`: the concentration for half-maximal inhibition (IC50) in series [1] was 3.7 nM. The same measure, in the same setting: the same measure for `COC(=O)CN1C(=O)[C@@H](NC(=O)[C@@H](C)Cc2ccc(F)c(F)c2)N=C(c2ccc3c(c2)OCO3)c2ccccc21`: 12.7 nM; for `C[C@@H](Cc1ccc(F)c(F)c1)C(=O)N[C@H]1N=C(c2ccc3c(c2)OCO3)c2ccccc2NC1=O`: 1.8 nM. With `C[C@@H](Cc1ccc(F)c(F)c1)C(=O)N[C@H]1N=C(c2ccc3c(c2)OCO3)c2ccccc2N(CCO)C1=O`, the IC50 in series [1] was determined as 0.9 nM. For the compound `C[C@@H](Cc1ccc(F)c(F)c1)C(=O)N[C@H]1N=C(c2ccc3c(c2)CCC(=O)N3)c2ccccc2N(C)C1=O`, the midpoint of inhibition in series [1], the IC50, lay at 101 nM. This IC50 is about 110-fold higher than that of the compound before. Still for that read-out and setting: to `CNC(=O)CN1C(=O)[C@@H](NC(=O)[C@@H](C)Cc2ccc(F)c(F)c2)N=C(c2ccc3c(c2)OCO3)c2ccccc21` belongs 1.8 nM; to `C[C@@H](Cc1ccc(F)c(F)c1)C(=O)N[C@H]1N=C(c2ccc3c(c2)OCCO3)c2ccccc2N(C)C1=O`, 4.7 nM.

Turning to `C[C@@H](Cc1ccc(F)c(F)c1)C(=O)N[C@H]1N=C(c2ccc3c(c2)CCC3=O)c2ccccc2N(C)C1=O`, the midpoint of inhibition in series [1], the IC50, lay at 3.6 nM. This IC50 and that of the compound before are within 1.5-fold of each other.

By IC50 is commonly meant the point on the concentration scale where inhibition reaches its midpoint. A high value points to weaker potency. One may read the Cmax as the highest concentration seen after dosing. Broadly, the AUC is the area under the concentration-time curve, a measure of exposure. By bioavailability is commonly meant the share of a dose that reaches the circulation, judged against a reference dose that is usually intravenous. A lower bioavailability goes with poor availability. Usually half-life stands for the time in which the quantity being followed falls by half. A lower half-life goes with rapid decline.

Source of the values: ChEMBL document CHEMBL1145882, “High affinity, bioavailable 3-amino-1,4-benzodiazepine-based gamma-secretase inhibitors” (Bioorg Med Chem Lett, 2003).
